Assay results: patent US20220324835A1 (Nurix Therapeutics, Inc., priority 2018, published 2022)

Key:
T-cell [1] = assay: IL-2 secretion from T-cells stimulated with anti-CD3 antibody alone (Biological Example 2); format: cell-based, human; conditions: T-cell, fold change over baseline, primary human total T-cells, read-out: IL-2 secretion Anti-CD3 stimulation; for fold induction at 1 µM: 1 μM Cbl-b inhibitor; for fold induction at 8 µM: 8 μM Cbl-b inhibitor
Cbl-b = Cbl-b (Homo sapiens, UniProt Q13191); assay: Cbl-b activity assay (Cbl-b inhibition assay), TR-FRET of Cbl-b interaction with UbcH5B-Ub; format: biochemical; conditions: assay buffer with 100 mM NaCl, 60 nM Src kinase; read-out: Cbl-b activity IC50
Chain of Cbl-b (Q13191 36-427): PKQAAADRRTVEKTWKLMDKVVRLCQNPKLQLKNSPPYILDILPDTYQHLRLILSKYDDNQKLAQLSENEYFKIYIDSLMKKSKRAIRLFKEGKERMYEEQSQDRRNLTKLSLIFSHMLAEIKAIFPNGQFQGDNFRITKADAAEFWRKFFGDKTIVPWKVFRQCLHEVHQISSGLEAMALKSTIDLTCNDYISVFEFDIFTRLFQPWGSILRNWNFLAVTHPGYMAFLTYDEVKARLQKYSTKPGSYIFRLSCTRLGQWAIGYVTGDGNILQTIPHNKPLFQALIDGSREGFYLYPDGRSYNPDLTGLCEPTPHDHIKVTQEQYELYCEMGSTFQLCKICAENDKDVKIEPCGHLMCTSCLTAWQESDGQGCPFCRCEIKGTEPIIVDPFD
Procedure, shortened: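 TR-FRET readout of Cbl-b binding to Bodipy-fluorescein N-terminally labeled Ub conjugated to UbcH5B C85K, measured with compound present. After compound incubation, 60 nM Src kinase with 1 mM ATP and 5 mM MgCl2 (final) was added for 1.5 h, then a further 1 h incubation; asterisked values used 50 mM NaCl buffer and 30 nM Src.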

Cbl-b (residues 36-427) = Cbl-b (residues 36-427) (Homo sapiens, UniProt Q13191); assay: Cbl-b binding assay (SPR, Biacore T200); conditions: 20° C., 1:1 binding model
Chain of Cbl-b (residues 36-427) (Q13191 36-427): as above
Procedure, shortened: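 Affinities derived from global 1:1 steady-state or kinetic fits of double-referenced, solvent-corrected SPR data, 20 °C, NeutrAvidin-capture chip. Compound series (top 100 or 50 μM, 8–10 points) injected 50 s, 90–180 s dissociation. Asterisked values used 50 mM instead of 100 mM NaCl and 30 nM Src kinase.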

T-cell [2] = assay: CD25 cell surface staining on T-cells stimulated with anti-CD3 antibody alone (Biological Example 2); format: cell-based, human; conditions: T-cell, fold change over baseline, primary human total T-cells, read-out: CD25 staining Anti-CD3 stimulation; for fold induction at 1 µM: 1 μM Cbl-b inhibitor; for fold induction at 8 µM: 8 μM Cbl-b inhibitor

SMILES	fold induction at 1 µM (T-cell [1])	fold induction at 8 µM (T-cell [1])	IC50 (Cbl-b) [nM]	Kd (Cbl-b (residues 36-427)) [nM]	fold induction at 1 µM (T-cell [2])	fold induction at 8 µM (T-cell [2])
C[C@H](Cc1nncn1C)c1cccc(N2Cc3c(cc(C(=O)N4C[C@@H](O)C[C@H]4C)cc3C(F)(F)F)C2=O)c1 [Compound 275, 6-((2R,4S)-4-hydroxy-2-methylpyrrolidine-1-carbonyl)-2-(3-((R)-1-(4-methyl-4H-1,2,4-triazol-3-yl)propan-2-yl)phenyl)-4-(trifluoromethyl)isoindolin-1-one]	> 0.201	> 0.201	< 100	< 100	0.801 to 1	> 1
CNc1cc([C@H](C)Cc2nncn2C)cc(N2Cc3c(cccc3C(F)(F)F)C2=O)n1 [Compound 363, (R)-2-(4-(1-(4-methyl-4H-1,2,4-triazol-3-yl)propan-2-yl)-6-(methylamino)pyridin-2-yl)-4-(trifluoromethyl)isoindolin-1-one]	0.051 to 0.1	0.151 to 0.2	< 100	< 100	0.601 to 0.8	> 1
C[C@H](Cc1nncn1C)c1cccc(NC(=O)c2cc(C3CC3)cc(C(F)(F)F)n2)c1 [Compound 191, (R)-4-cyclopropyl-N-(3-(1-(4-methyl-4H-1,2,4-triazol-3-yl)propan-2-yl)phenyl)-6-(trifluoromethyl)picolinamide]	> 0.201	> 0.201	< 100	< 100	> 1	> 1
Cc1cc(C(=O)Nc2cccc([C@H](C)Cc3nncn3C)c2)nc(C2CC2)n1 [Compound 195, (R)-2-cyclopropyl-6-methyl-N-(3-(1-(4-methyl-4H-1,2,4-triazol-3-yl)propan-2-yl)phenyl)pyrimidine-4-carboxamide]	> 0.201	> 0.201	< 100	< 100	> 1	> 1
C[C@H](Cc1nncn1C)c1cccc(NC(=O)c2cc(C(C)(C)O)cc(C(F)(F)F)n2)c1 [Compound 320, 4-(2-hydroxypropan-2-yl)-N-[3-[(2R)-1-(4-methyl-4H-1,2,4-triazol-3-yl)propan-2-yl]phenyl]-6-(trifluoromethyl)pyridine-2-carboxamide]	0.101 to 0.15	> 0.201	100 to 300	100 to 300	0.801 to 1	> 1
C[C@H](Cc1nncn1C)c1cccc(NC(=O)c2cccc(C(C)(C)C)n2)c1 [Compound 321, (R)-6-(Tert-butyl)-N-(3-(1-(4-methyl-4H-1,2,4-triazol-3-yl)propan-2-yl)phenyl)picolinamide]	0.051 to 0.1	> 0.201	< 100	100 to 300	0.801 to 1	> 1
